Columns and labels:
Type IV PDE = Type IV PDE inhibitory activity; format: biochemical; details: Type IV PDE partially purified from rat neutrophils; 3H-cAMP substrate, 30° C., 30 minutes
Description: Type I, III, IV, and V PDE isozymes were prepared to study the PDE inhibitory activities of and selectivities with the compound of the invention [Trends Pharmacol Sci., 12, 19-27 (1992)]. Type I PDE was purchased from Sigma Corp. Type III, IV, and V PDE isozymes were partially purified from platelets (Type III and V) or neutrophils (Type IV) collected from rats. Each enzyme source was homogenized in a buffer (pH 6.5) containing 20 mM bisTris, 2 mM EDTA (i.e., ethylenediamine tetraacetate), 0.1 mM PMSF (i.e., phenylmethylsulfonyl fluoride), 5 mM 2-mercaptoethanol, 0.001 mM pepstatin and 0.01 mM leupeptin and was centrifuged at 30000×G for 30 minutes to obtain a supernatant, which was applied to an ion exchange column (Q-sepharose First Flow, Pharmacia Corp.) and was eluted with 0 to 1M sodium acetate. Partially purified isozymes were identified by observing the effects by conventional inhibitors.
Each PDE isozyme and the test compound dissolved in DMSO (i.e., dimethyl sulfoxide) were added to 50 mM Tris-HCl buffer containing 5 mM magnesium chloride. ^3 H-cAMP (for type III and IV PDE) or ^3 H-cGMP (for type I and V PDE) were added as substrates and were reacted at 30° C. for 30 minutes. The reaction was terminated by placing the test tube in boiling water of 100° C. for 5 minutes. The nucleotides formed by PDE were broken down by 5'-nucleotidase to ^3 H-adenosine or 3H-guanosine. The unreacted substrate and reaction product were separated through an ion-exchange column (i.e., QAE sephadex, Pharmacia Corp.) The eluted ^3 H-nucleoside was measured for its radioactivity by a liquid scintillation counter. The inhibitory activities of the compound of the present invention are shown by the IC50 value (M). Further, the inhibitory activities of the test samples against Type I, III, and V are 1/10 or less than that against type IV.

rat neutrophils = experiment: Inhibitory action of super oxide anion release from rat neutrophils; format: cell-based; details: Neutrophil, stimulation with 0.3 μM calcium ionophore A23187, chemiluminescence, Lusigenin
Description: Inhibitory effects on activity of rat neutrophils
The release of super oxide anions was measured so as to study the inhibitory effects of the compound of the present invention on inflammatory leukocytes, that is, neutrophils.
Blood sample was collected from Wister rats anesthetized with ether. It was superposed on a blood cell separation solution (Polymorphoprep 1.113, made by Naicomed Farm), and the neutrophils were separated by centrifugation. The neutrophils were resuspended in a Hank's balanced salt solution at a concentration of 0.5×10^4 cells/ml 0.1 mM of Lusigenin and the test substance dissolved in DMSO were added to 2 ml of the cell-suspension. The chemiluminescence generated by stimulation of 0.3 μM calcium ionophore A23187 was measured by a chemiluminescence reader so as to evaluate the release of super oxide anions.

[1] = system: antigen-induced bronchospasms; experiment: Inhibitory effect on Antigen-Induced Bronchospasm (Anti-Asthmatic action); format: in vivo; details: Cavia porcellus; Hartley male guinea pig sensitized with Ovalbumin; intravenous, 10 minutes before 0.2 mg/kg OA i.v.; Konzett-Roessler method; read-out: Action for suppressing antigen-induced bronchospasms ED50
Description: Inhibitory effect on Antigen-Induced Bronchospasm (Anti-Asthmatic action)
A Hartley male guinea pig was sensitized by intramuscular administration of 35 mg Ovalbumin (OA) on first day and fourth day. A tracheal canula was introduced in the guinea pig anesthetized with pentobarbital and artificial ventilation was performed 25 to 29 days after the first sensitization. The overflow of the ventilation was measured by the Konzett-Roessler method while 0.2 mg/kg OA were administered intravenously. The test compound was dissolved in polyethylene glycol 400 and intravenously administered 10 minutes before administration of the antigens.

IC50 (Type IV PDE) [µM]	IC50 (rat neutrophils) [µM]	SMILES	ED50 [1] [mg/kg]
1.5	5.8	COc1ccc(C2CNC(=O)CO2)cc1OC1CCCC1 (stereo not drawn) [Compound No. 2, 2-(3-cyclopentyloxy-4-methoxyphenyl)morpholin-5-one]	0.48
16	1.6	COc1ccc(C2(C)CNC(=O)CO2)cc1OC (stereo not drawn) [Compound No. 9, 2-(3,4-dimethoxyphenyl)-2-methylmorpholin-5-one]	–
1.8	1.4	COc1ccc(C2CN(Cc3ccc(Br)cc3)C(=O)CO2)cc1OC1CCCC1 (stereo not drawn) [Compound No. 13, 4-(4-bromobenzyl)-2-(3-cyclopentyloxy-4-methoxyphenyl)morpholin-5-one]	–
0.13	–	COc1ccc(C2(C)CNC(=O)CO2)cc1OC1Cc2ccccc2C1 (stereo not drawn) [Compound No. 27, 2-[3-(2-indanyloxy)-4-methoxyphenyl]-2-methylmorpholin-5-one]	7.99

Continued, compound first:

SMILES	IC50 (Type IV PDE) [µM]	IC50 (rat neutrophils) [µM]	ED50 [1] [mg/kg]
COc1ccc(C2CNC(=O)CO2)cc1OC (stereo not drawn) [Compound No. 1, 2-(3,4-dimethoxyphenyl)morpholin-5-one]	37	29	–
COc1ccc(C2CN(C)C(=O)CO2)cc1OC1CCCC1 (stereo not drawn) [Compound No. 14, 2-(3-cyclopentyloxy-4-methoxyphenyl)-4-methylmorpholin-5-one]	0.31	–	2.1
COc1ccc(C2CNC(=O)CO2)cc1OCC1(C)CC1 (stereo not drawn) [Compound No. 35, 2-[3-[(1-methylcyclopropyl)methoxy]-4-methoxyphenyl]morpholin-5-one]	1.3	–	6.22
COc1ccc(C2CNC(=O)CO2)cc1OCC1CCCC1 (stereo not drawn) [Compound No. 36, 2-(3-cyclopentylmethoxy-4-methoxyphenyl)morpholin-5-one]	6.9	–	1
COc1ccc(C2CNC(=O)CO2)cc1OCC1CCC1 (stereo not drawn) [Compound No. 38, 2-(3-cyclobutylmethoxy-4-methoxyphenyl)morpholin-5-one]	4.6	–	7.83
COc1ccc(C2CNC(=O)CO2)cc1OCC(C)C (stereo not drawn) [Compound No. 39, 2-[3-(2-methylpropoxy)-4-methoxyphenyl]morpholin-5-one]	7.8	–	8.04

From US6265402A, “Use of 2-phenylmorpholin-5-one derivatives” (Nikken Chemicals Co., Ltd., priority 1996, dated 2001)
